PubChem BioAssay (NCI)
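Growth conditions: 96-well plates. Treatment: test compound, 48 hours, 5 concentrations. Analysis: linear interpolation between bracketing concentrations; unreached endpoints set to highest concentration. Abbreviation: GI50, concentration required for 50% inhibition of growth. TGI: total growth inhibition.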

Tests used:
Experiment in all cases: NCI anticancer screen, dose series, 48 h
786-0 renal = tested on: 786-0 renal
A498 renal = tested on: A498 renal
A549 NSCLC = tested on: A549 NSCLC
ACHN renal = tested on: ACHN renal
BT-549 breast = tested on: BT-549 breast
CAKI-1 renal = tested on: CAKI-1 renal
CCRF-CEM leukemia = tested on: CCRF-CEM leukemia
COLO 205 colon = tested on: COLO 205 colon
DU-145 prostate = tested on: DU-145 prostate
HCC-2998 colon = tested on: HCC-2998 colon
HCT-116 colon = tested on: HCT-116 colon
HCT-15 colon = tested on: HCT-15 colon
HL-60(TB) leukemia = tested on: HL-60(TB) leukemia
HOP-62 NSCLC = tested on: HOP-62 NSCLC
HOP-92 NSCLC = tested on: HOP-92 NSCLC
HS 578T breast = tested on: HS 578T breast
HT29 colon = tested on: HT29 colon
IGROV1 ovarian = tested on: IGROV1 ovarian
K-562 leukemia = tested on: K-562 leukemia
KM12 colon = tested on: KM12 colon
LOX IMVI melanoma = tested on: LOX IMVI melanoma
M14 melanoma = tested on: M14 melanoma
MALME-3M melanoma = tested on: MALME-3M melanoma
MCF7 breast = tested on: MCF7 breast
MDA-MB-231 breast = tested on: MDA-MB-231 breast
MDA-MB-435 = tested on: MDA-MB-435
MOLT-4 leukemia = tested on: MOLT-4 leukemia
NCI-H226 lung = tested on: NCI-H226 lung
NCI-H23 lung = tested on: NCI-H23 lung

O=[N+]([O-])c1ccc2c(c1)C(c1ccccc1Cl)=Nc1c(n[nH]c1-c1cccnc1)N2
GI50 (786-0 renal): > 25 µM | TGI (786-0 renal): > 25 µM | GI50 (A498 renal): > 20.3 µM | TGI (A498 renal): > 25 µM | GI50 (A549 NSCLC): > 25 µM | TGI (A549 NSCLC): > 25 µM | GI50 (ACHN renal): > 25 µM | TGI (ACHN renal): > 25 µM | GI50 (BT-549 breast): > 25 µM | TGI (BT-549 breast): > 25 µM | GI50 (CAKI-1 renal): > 25 µM | TGI (CAKI-1 renal): > 25 µM | GI50 (CCRF-CEM leukemia): > 25 µM | TGI (CCRF-CEM leukemia): > 25 µM | GI50 (COLO 205 colon): > 25 µM | TGI (COLO 205 colon): > 25 µM | GI50 (DU-145 prostate): > 25 µM | TGI (DU-145 prostate): > 25 µM | GI50 (HCC-2998 colon): > 25 µM | TGI (HCC-2998 colon): > 25 µM | GI50 (HCT-116 colon): > 25 µM | TGI (HCT-116 colon): > 25 µM | GI50 (HCT-15 colon): > 25 µM | TGI (HCT-15 colon): > 25 µM | GI50 (HL-60(TB) leukemia): > 25 µM | TGI (HL-60(TB) leukemia): > 25 µM | GI50 (HOP-62 NSCLC): > 25 µM | TGI (HOP-62 NSCLC): > 25 µM | GI50 (HOP-92 NSCLC): > 25 µM | TGI (HOP-92 NSCLC): > 25 µM | GI50 (HS 578T breast): > 19.9 µM | TGI (HS 578T breast): > 25 µM | GI50 (HT29 colon): > 25 µM | TGI (HT29 colon): > 25 µM | GI50 (IGROV1 ovarian): > 25 µM | TGI (IGROV1 ovarian): > 25 µM | GI50 (K-562 leukemia): > 25 µM | TGI (K-562 leukemia): > 25 µM | GI50 (KM12 colon): 9.41 µM | TGI (KM12 colon): > 25 µM | GI50 (LOX IMVI melanoma): > 25 µM | TGI (LOX IMVI melanoma): > 25 µM | GI50 (M14 melanoma): > 25 µM | TGI (M14 melanoma): > 25 µM | GI50 (MALME-3M melanoma): > 25 µM | TGI (MALME-3M melanoma): > 25 µM | GI50 (MCF7 breast): > 25 µM | TGI (MCF7 breast): > 25 µM | GI50 (MDA-MB-231 breast): > 25 µM | TGI (MDA-MB-231 breast): > 25 µM | GI50 (MDA-MB-435): > 25 µM | TGI (MDA-MB-435): > 25 µM | GI50 (MOLT-4 leukemia): > 25 µM | TGI (MOLT-4 leukemia): > 25 µM | GI50 (NCI-H226 lung): > 25 µM | TGI (NCI-H226 lung): > 25 µM | GI50 (NCI-H23 lung): > 25 µM
